Experimental data published in patent US20210315837A1, “CANNABINOIDS FOR THE TREATMENT OF GRAM-POSITIVE INFECTIONS INCLUDING ANTIBIOTIC-RESISTANT BACTERIAL STRAINS” (priority 2018, published 2021).
≈ marks a conversion by molar mass, not a printed value. Where “and” joins values, the source holds several entries; their conditions need not be identical. Identical values can stand only once. Like-named read-outs stand apart in the source and are kept apart here.

Legend:
[1] = test system: MRS 1708 (Mupirocin-resistant); experiment: IC50, MIC and MBC against MRS 1708 (Mupirocin-resistant); type: cell-based, Staphylococcus aureus; details: Staphylococcus aureus
Procedure: (§1) As used herein, the term “minimum inhibitory concentration (MIC)” refers to the lowest concentration of an antimicrobial agent that will inhibit the visible growth of a microorganism after overnight incubation. MIC values against bacteria may be determined by standard methods. See also P. A. Wayne, Methods for Dilution Antimicrobial Tests for Bacteria that Grow Aerobically; Approved Standard, Ninth Edition, 2012, CLSI Document M07-A9, Vol. 32 No. 2, which is incorporated by reference herein in its entirety.

MRS 33591 [2] = experiment: Growth inhibition of cannabinoid combinations, IC50s chosen for FICs, MRS 33591; type: cell-based; details: Staphylococcus aureus
MRS 33591 [3] = experiment: IC50, MIC and MBC against MRS 33591; type: cell-based, Staphylococcus aureus
Procedure: as §1

MRS USA 400 = experiment: IC50, MIC and MBC against MRS USA 400; type: cell-based, Staphylococcus aureus
Procedure: as §1

Mupirocin-resistant MRS = type: cell-based, Staphylococcus aureus; details: in combination with Mupirocin
MRS 1717 = experiment: Growth inhibition of cannabinoid combinations, IC50s chosen for FICs, MRS 1717; type: cell-based; details: Staphylococcus aureus
MRS 1696 = experiment: Growth inhibition of cannabinoid combinations, IC50s chosen for FICs, MRS 1696; type: cell-based; details: Staphylococcus aureus
MRS USA 300 = experiment: IC50, MIC and MBC against MRS USA 300; type: cell-based, Staphylococcus aureus
Procedure: as §1

S. aureus 29213 = experiment: IC50, MIC and MBC against S. aureus 29213; type: cell-based; details: Staphylococcus aureus; for IC50: 29213; for MIC: S. aureus 29213, tested Conc. in μg/mL, read-out: MIC
Procedure: As used herein, the term “minimum inhibitory concentration (MIC)” refers to the lowest concentration of an antimicrobial agent that will inhibit the visible growth of a microorganism after overnight incubation. MIC values against bacteria may be determined by standard methods.

MRS 1708 = experiment: Growth inhibition of cannabinoid combinations, IC50s chosen for FICs, MRS 1708; type: cell-based; details: Staphylococcus aureus
[4] = read-out: IC50, Cannabidiol (CBD) + Cannabigerol (CBG)
[5] = read-out: IC50, Cannabinol (CBN) + Cannabigerol (CBG)
[6] = MRS USA 400, tested Conc. in μg/mL
[7] = MRS USA 300, tested Conc. in μg/mL
[8] = read-out: IC50, Cannabidiol (CBD) + Cannabigerol (CBG), IC50 of first-named cannabinoid at the fixed ug/mL of the second given in the label
[9] = read-out: IC50, Cannabidiol (CBD) + Cannabinol (CBN)

SMILES: CCCCCc1cc(O)c(C/C=C(\C)CCC=C(C)C)c(O)c1 [CBG, Cannabigerol]
- IC50 [1]: 2.34 µM and 0.74 µg/mL
- MBC [1]: > 63 µM
- MIC [1]: 3.95 µM (≈ 1.25 µg/mL)
- IC50 (MRS 33591 [2]; [4]): 1.08 µg/mL
- IC50 (MRS 33591 [2]; [5]): 1.05 µg/mL
- MBC (MRS 33591 [3]; MRS 33591, tested Conc. in μg/mL): 3.75
- IC50 (MRS 33591 [3]; Staphylococcus aureus): 2.31 µM and 0.73 µg/mL
- MBC (MRS 33591 [3]; Staphylococcus aureus): 11.8 ± 5.59 µM (≈ 3.75 µg/mL)
- MIC (MRS 33591 [3]; Staphylococcus aureus): 3.95 µM and 1.25 µg/mL
- MIC (MRS USA 400; [6]): 1.67
- IC50 (MRS USA 400; Staphylococcus aureus, USA400): 2.72 µM and 0.86 µg/mL
- MBC (MRS USA 400; Staphylococcus aureus, USA400): > 63 µM
- MIC (MRS USA 400; Staphylococcus aureus, USA400): 5.28 ± 2.27 µM (≈ 1.67 µg/mL)
- effect of combination with Mupirocin (Mupirocin-resistant MRS): no effect
- IC50 (MRS 1717; [4]): 0.741 µg/mL
- IC50 (MRS 1717; [5]): 0.911 µg/mL
- IC50 (MRS 1696; [4]): 0.9 µg/mL
- IC50 (MRS 1696; [5]): 0.896 µg/mL
- MIC (MRS USA 300; [7]): 1.67
- IC50 (MRS USA 300; Staphylococcus aureus, USA300): 2.43 µM and 0.77 µg/mL
- MBC (MRS USA 300; Staphylococcus aureus, USA300): > 63 µM
- MIC (MRS USA 300; Staphylococcus aureus, USA300): 5.28 ± 2.27 µM (≈ 1.67 µg/mL)
- IC50 (S. aureus 29213): 0.75 µg/mL (≈ 2.37 µM)
- MIC (S. aureus 29213): 1.25 µg/mL (≈ 3.95 µM)
- IC50 (MRS 1708; IC50 of first-named cannabinoid at the fixed ug/mL of the second given in the label, read-out: IC50, Cannabinol (CBN) + Cannabigerol (CBG)): 0.872 µg/mL
- IC50 (MRS 1708; [8]): 0.959 µg/mL

SMILES: C=C(C)[C@@H]1CCC(C)=C[C@H]1c1c(O)cc(CCCCC)cc1O [CBD, Cannabidiol]
- IC50 [1]: 2.86 µM and 0.9 µg/mL
- MBC [1]: 10.6 ± 4.58 µM (≈ 3.33 µg/mL)
- MIC [1]: 5.31 ± 2.29 µM (≈ 1.67 µg/mL)
- IC50 (MRS 33591 [2]; [4]): 1.23 µg/mL
- IC50 (MRS 33591 [2]; [9]): 1.28 µg/mL
- IC50 (MRS 33591 [3]; Staphylococcus aureus): 3.24 µM and 1.02 µg/mL
- MIC (MRS 33591 [3]; Staphylococcus aureus): 6.61 µM and 2.08 µg/mL
- MIC (MRS USA 400; [6]): 2.5 ± 0
- IC50 (MRS USA 400; Staphylococcus aureus, USA400): 3.69 µM and 1.16 µg/mL
- MIC (MRS USA 400; Staphylococcus aureus, USA400): 7.95 µM (≈ 2.5 µg/mL)
- effect of combination with Mupirocin (Mupirocin-resistant MRS): no effect
- IC50 (MRS 1717; [4]): 0.864 µg/mL
- IC50 (MRS 1717; [9]): 1.1 µg/mL
- IC50 (MRS 1696; [4]): 1.28 µg/mL
- IC50 (MRS 1696; [9]): 1.36 µg/mL
- MBC (MRS USA 300; [7]): 3.33
- MIC (MRS USA 300; [7]): 1.67
- IC50 (MRS USA 300; Staphylococcus aureus, USA300): 2.99 µM and 0.94 µg/mL
- MBC (MRS USA 300; Staphylococcus aureus, USA300): 10.6 ± 4.58 µM (≈ 3.33 µg/mL)
- MIC (MRS USA 300; Staphylococcus aureus, USA300): 5.31 ± 2.29 µM (≈ 1.67 µg/mL)
- IC50 (S. aureus 29213): 1.16 µg/mL (≈ 3.69 µM)
- MIC (S. aureus 29213): 2.08 µg/mL (≈ 6.61 µM)
- IC50 (MRS 1708; [8]): 0.96 µg/mL
- IC50 (MRS 1708; read-out: IC50, Cannabidiol (CBD) + Cannabinol (CBN), IC50 of first-named cannabinoid at the fixed ug/mL of the second given in the label): 1.06 µg/mL
